This series can be described thus: in vivo. The following applies: rat, po.

The structures appear in SMILES notation.

One may read the AUC(0-t) as exposure summed from dosing to a finite time, without extrapolation to infinity. Compound `Cc1ccc(-n2cnc3c(sc4ncnc(NC5CC5)c43)c2=O)cc1` came in with an AUC(0-t) at 6 h of 0.89 µM·h. In the case of `COc1ccc(-n2cnc3c(sc4ncnc(NC5CC5)c43)c2=O)cc1F` it was 8.6 µM·h.

The values above are taken from ChEMBL document CHEMBL2202982, “Synthesis and SAR development of novel mGluR1 antagonists for the treatment of chronic pain” (Bioorg Med Chem Lett, 2012).
